This is an account of results in PubChem BioAssay (NCI).

By TGI is commonly meant the concentration at which net growth stops. The low end stands for greater sensitivity of the cells, the high end for lower sensitivity of the cells. The term GI50 denotes the concentration that inhibits growth by half.

Each structure is given as a SMILES string. “And” between values parts separate entries of the source, which are not always exact repeats. Equal entries are not always repeated.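 Values below derive from 48-hour exposures of cells grown in 96-well plates, with endpoints linearly interpolated between the two concentrations bracketing the appropriate inhibition level. GI50 = concentration required for 50% inhibition of growth. TGI denotes the concentration required for complete inhibition of growth.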 Bounds are passed on as bounds.

Holding throughout (test): DTP human tumour cell line panel, 48 h
Assay [1] has as its system COLO 205 colon.
In assay [2] the test system is RPMI-8226 leukemia.
In assay [3] the test system is HT29 colon.
The test system of assay [4] is NCI-H522 lung.
Assay [5] relates to A549 NSCLC.
For assay [6], the system named is A498 renal.
Assay [7] deals with HOP-92 NSCLC.
Assay [8] relates to MDA-MB-435.
The test system of assay [9] is PC-3 prostate.
The subject of assay [10] is T-47D breast.

On to `COc1nc2c(OC)cccc2c(OC)c1C=O`, for which the TGI in [1], in assay [2], in assay [3], in assay [4] and in assay [5] was greater than 100 µM in each case.

As for `COc1ccc(OCC(=O)O)c2c1CCC(C(C)C)C2=O` (stereo not given), the TGI in assay [1], in assay [6], in [7], in [2], in assay [3] and in assay [4] was greater than 100 µM in each case. In addition, the TGI in assay [5] is greater than 100 µM.

In the case of `CN(C)/[N+]([O-])=N/Oc1cc(Nc2cccc(C(=O)O)c2)c([N+](=O)[O-])cc1[N+](=O)[O-]`, the GI50 in assay [1] is greater than 100 µM; in assay [8] it was greater than 100 µM; in assay [2] it was greater than 100 µM; in assay [3], greater than 100 µM; in assay [4] it was 69.3 µM; in [5], greater than 100 µM. Further, in assay [9], the GI50 was greater than 100 µM. In addition, the TGI in assay [1], in [8], in assay [2], in assay [3], in assay [4] and in [5] was greater than 100 µM each time. Also, in [9], the TGI is greater than 100 µM.

`CN/N=C(/Cc1occc(=O)c1O)C(=O)Nc1ccc(C)c(C)c1`: the TGI in assay [1], in assay [6], in [7], in assay [2], in assay [3] and in assay [4] was greater than 100 µM throughout. The TGI in assay [5] is greater than 100 µM.

Regarding `COC(=O)C1(C)C=C(Nc2ccccc2)C(=O)N1c1ccccc1` (stereo not given), the TGI in assay [7], in [2], in assay [3], in assay [4] and in assay [5] was greater than 100 µM each time.

Consider `O=C1C2C(C(=O)N1O)N(Cc1ccccc1)C(=O)N2Cc1ccccc1` (stereo not given), for which the TGI in [1], in [6], in [7], in assay [2], in assay [3] and in [4] was greater than 100 µM in each case. Also, the TGI in assay [5] is greater than 100 µM.

On to `C/C(CN1C(=O)c2ccccc2C1=O)=N\NS(=O)(=O)c1cccc([N+](=O)[O-])c1`, for which the TGI in assay [1], in assay [6], in assay [2], in assay [3], in assay [4] and in [5] was greater than 100 µM throughout.

On to `Cc1ccc(C)c(NC(=O)C(=O)C2C(=O)C3=C(CC2(C)C)Nc2ccccc2S3)c1` (stereo not given), for which the TGI in assay [1], in [8], in assay [7], in assay [3], in [4] and in [5] was greater than 100 µM throughout. In addition, the concentration for total growth inhibition (TGI) in [9] is greater than 100 µM.

Turning to `O=C1NC(=O)C(C(=O)C(=O)Nc2ccc(Br)cc2)C(=O)N1`, the TGI in assay [1], in [6], in assay [7], in assay [2], in assay [3] and in assay [4] was greater than 100 µM in each case. The TGI in assay [5] is greater than 100 µM.

For `Oc1cccc2c1NC1=C(CCC/C1=C\c1ccccc1)C2`, the TGI in assay [1] is greater than 100 µM; in assay [2] it was greater than 100 µM; in [3], greater than 100 µM; in [4], 83.5 µM; in assay [5], greater than 100 µM.

Turning to `CCOC(=N)CC(=O)Nc1ccc(Cl)cc1`, the TGI in assay [1], in [6], in assay [3], in assay [4] and in [5] was greater than 100 µM in each case.

In the case of `O=S(=O)([O-])[O-].[OH3+].[OH3+].[OH3+].[Ru+2].c1ccccc1`, the GI50 in assay [1], in assay [7], in [2], in assay [3] and in [5] was greater than 100 µM throughout. Besides, the TGI in assay [1], in [7], in assay [2], in assay [3] and in [5] was greater than 100 µM each time.

Take `O=C(CCN1CCN(c2cccc(Cl)c2)CC1)N1CCc2c([nH]c3ccccc23)C1c1cccnc1` (stereo not given): the GI50 in assay [1] was 4.83 µM; in [6], 5.56 µM; in assay [7], 12.3 µM; in assay [3] it was 4.13 µM; in [4] it was 4.85 µM. Besides, the TGI in [1] was 15.6 µM; in assay [6] it was 20.2 µM; in assay [7], 9.52 µM and 35.7 µM; in [3] it was 16.4 µM; in assay [4], 19.1 µM; in [5], 19 µM.

`CC(Cn1c2c3ccccc3ccc2c2oc(=O)c3ccccc3c21)N(C)C` (stereo not given): the TGI in assay [1], in [7], in assay [2], in assay [3], in [4] and in assay [5] was greater than 100 µM throughout.

On to `O=C1C=CC(=O)c2c1ccc1c3ccccc3n(-c3ccccn3)c21`, for which the TGI in assay [1] was 30.2 µM; in assay [7] it was 29.9 µM; in [2], greater than 100 µM; in assay [3], 77.1 µM; in assay [4] it was 8.67 µM; in [5], greater than 100 µM.

On to `CCCc1c2c([nH]c(=O)c1C)C(=O)c1[nH]c(=O)c(C)c(CCC)c1C2=O`, for which the concentration for total growth inhibition (TGI) in assay [1] was 55.1 µM; in assay [6], greater than 100 µM; in assay [7], 93.8 µM; in assay [3] it was 18.7 µM; in assay [5], 72.7 µM.

For `COc1cccc(N2C(=O)c3c(c4[nH]c5ccccc5c4c4ccc(C(C)(C)C)cc34)C2=O)c1`, the TGI in [1], in [6], in assay [7], in assay [4] and in assay [5] was greater than 100 µM throughout.

In the case of `CC(C(=O)N1C(=O)N(C(=O)C(C)C(O)c2ccccc2)C(c2ccccc2)C1c1ccccc1)C(O)c1ccccc1` (stereo not given), the TGI was 28.1 µM in [1]; 61.2 µM in assay [8]; 40.4 µM in assay [7]; greater than 100 µM in [10]; 13.6 µM in assay [2]; 18.8 µM in assay [3]. Further, the TGI in [4] is 48.4 µM; in [5], greater than 100 µM.

For the compound `COc1ccc2[nH]cc(CCNC(C)=O)c2c1`, the TGI was 85.5 µM in assay [1]; greater than 100 µM in assay [6]; greater than 100 µM in assay [7]; 57.1 µM in assay [2]; greater than 100 µM in assay [3]; greater than 100 µM in [4]. In assay [5], this compound had a TGI greater than 100 µM.

`COC(=O)c1c[nH]cc1CCc1c[nH]cc1C(=O)OC`: the TGI in assay [1], in assay [6], in [7], in assay [3], in [4] and in [5] was greater than 100 µM in each case.

`CN(C)c1ccc(-c2cc(=O)c3ccccc3[nH]2)cc1`: the TGI in assay [1], in [2], in assay [3], in [4] and in [5] was greater than 100 µM each time.

As for `O=C(O)c1ccc(S(=O)(=O)c2ccccc2)c([N+](=O)[O-])c1`, the TGI in assay [1], in [6], in [7], in assay [2], in assay [3] and in assay [4] was greater than 100 µM throughout. For the same compound, the TGI in assay [5] was greater than 100 µM.

With `CC[C@@H]1C[C@@H]2CN3CCc4c([nH]c5ccc(OC)cc45)C(COC(=O)c4ccc(OC)c(OC)c4)(C2)C13`, the TGI is greater than 100 µM in assay [1]; 61.4 µM in assay [6]; 32.2 µM in assay [7]; 86.4 µM in assay [2]; 39.2 µM in assay [3]; greater than 100 µM in assay [5].

As for `O=C(Cc1nc2ccccc2s1)C(=O)Nc1ccc(Cl)cc1`, the TGI in assay [1], in [6], in [7], in assay [2], in assay [3] and in [4] was greater than 100 µM in each case. In addition, the TGI in assay [5] is greater than 100 µM.

Turning to `CCCCCCCCCCCCCS(=O)(=O)O`, the TGI in assay [1], in [6], in assay [7], in assay [3], in assay [4] and in assay [5] was greater than 100 µM in each case.

On to `CC(=O)Nc1ccc(/C=C(\NC(=O)c2ccccc2)c2nc3ccc4c(c3[nH]2)C(=O)c2ccccc2C4=O)cc1`, for which the TGI in assay [1], in [6], in assay [7], in assay [2], in [3] and in assay [4] was greater than 100 µM each time. Besides, the TGI in assay [5] was 96.3 µM.

Take `CC(=O)N1CCC2(C=Nc3ccccc32)CC1`: the TGI in [1], in [6], in assay [7], in assay [2], in [3] and in [5] was greater than 100 µM in each case.

Turning to `CNc1ccccc1C(=O)N/N=C/C=C/c1ccccc1`, the GI50 in [1] is 0.671 µM; in assay [6], 0.39 µM; in assay [7] it was 4.13 µM; in assay [10], 3.48 µM; in assay [2], 2.68 µM; in assay [3] it was 0.373 µM. The values for the GI50 in assay [4], in [5] and in assay [9] were 0.565 µM, 1.06 µM and 2.56 µM, respectively. Moreover, the TGI in [1] was 10.3 µM; in assay [6], 5.81 µM; in [7], 57.9 µM; in [10], greater than 86.9 µM; in [2], greater than 100 µM; in assay [3], 12.9 µM. Moreover, the figures for the TGI in assay [4], in [5] and in assay [9] were 11.3 µM, greater than 100 µM and greater than 100 µM, respectively.

As for `CSC(=S)c1ccc(C(=S)SC)cc1`, the TGI in [1], in [6], in assay [7], in assay [2], in [3] and in assay [4] was greater than 100 µM each time. In assay [5], this compound had a TGI greater than 100 µM.

Take `C/C(=N\NC(=S)N1CCCCCC1)c1nccnc1C`: the TGI in assay [6] is 12.9 µM; in assay [2], greater than 100 µM; in assay [3], greater than 100 µM; in assay [5] it was 30.6 µM.

With `Cn1ncc(=S)[nH]c1=S`, the TGI in assay [1], in assay [6], in assay [7], in assay [2], in assay [4] and in assay [5] was greater than 100 µM in each case.

In the case of `CC(C)C(C(=O)O)N(CC1(O)OCC(O)C(O)C1O)N=O` (stereo not given), the TGI in assay [1], in assay [6], in assay [7], in [2], in assay [3] and in assay [4] was greater than 100 µM throughout. Besides, the TGI in assay [5] was greater than 100 µM.

Regarding `CCN(CC)CCCN(c1cc(OC)cc2nccnc12)S(=O)(=O)c1ccc(C)cc1`, the TGI in assay [1], in assay [6], in [7], in assay [2], in [3] and in [4] was greater than 100 µM in each case. The compound further displayed a TGI in assay [5] greater than 100 µM.

With `O=C(Nc1ccc(Cl)c(C(F)(F)F)c1)C(=O)C(C(=O)/C=C/c1ccccc1)C1OC(=O)c2ccccc21` (stereo not given), the TGI in assay [1], in [6], in [7], in assay [2], in [3] and in assay [4] was greater than 100 µM in each case. In [5], the TGI was greater than 100 µM.

With `CCCN1C(=O)C/C(=C\C(C)=O)Nc2ccccc21`, the TGI in assay [1], in assay [7], in [3], in [4] and in assay [5] was greater than 100 µM throughout.

Regarding `CCNc1nnc(CSc2nc(-c3ccccc3)c(-c3ccccc3)[nH]2)s1`, the TGI worked out at 51.2 µM in [1]; 41.9 µM in assay [7]; 54.9 µM in assay [2]; 37.9 µM in assay [3]; 39.7 µM in [4]; 69.5 µM in [5].
